Data reported in patent US10111420B2 (priority 2011, dated 2018).

Experiment: Sessile advancing contact angle of distilled water containing surfactants
Format: physicochemical
Conditions: water on oven dry P. radiata
Description: The contact angle data is recorded using water because resins, by their nature, can continue to polymerise resulting in changes in viscosity which will change the wetting behaviour of the resin/surfactant mix. […] Water is also present in all amino resins as the carrier of the resin solids so it is important to understand the effect of the surfactant on water because this will have a direct relationship on the wetting performance of the resin. The contact angle shown below is the average of at least 5 measurements. The measurements were taken after 1 second and in some instances after half a second. Where the entry is “n/a” it indicates complete wetting i.e. a contact angle of 0° or very close to 0°.

Contact angle @ 1 sec (surfactant 0.05%, octanol 0.1%): 31.0 ° | Contact angle @ 1 sec (surfactant 0.1%, octanol 0.1%): 9.5 ° | Contact angle @ 1 sec (surfactant 0.1%, octanol 0.25%): 8.99 °
SMILES: CCCCCCCCCCCCOS(=O)(=O)[O-].[Na+] [SDS]
